Experiments:
Test in all cases: NCI-60 single-dose screen
Type in all cases: cell-based
[1] = test system: HCC-2998; conditions: Homo sapiens, single dose 10 µM, '-' = no inhibition, read-out: % Growth Inhibition
How it was run: (§1)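 Was run as a one-dose (10 μM) screen by the NCI Developmental Therapeutics Program, covering 60 tumour cell lines from nine cancer types including renal, melanoma and CNS.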

[2] = test system: SR; conditions: Homo sapiens, single dose 10 µM, '-' = no inhibition, read-out: % Growth Inhibition
How it was run: as §1

[3] = test system: NCI/ADR-RES; conditions: Homo sapiens, single dose 10 µM, '-' = no inhibition, read-out: % Growth Inhibition
How it was run: as §1

[4] = test system: LOX IMVI; conditions: Homo sapiens, single dose 10 µM, '-' = no inhibition, read-out: % Growth Inhibition
How it was run: as §1

[5] = test system: U251; conditions: Homo sapiens, U-251, single dose 10 µM, '-' = no inhibition, read-out: % Growth Inhibition
How it was run: as §1

[6] = test system: PC-3; conditions: Homo sapiens, single dose 10 µM, '-' = no inhibition, read-out: % Growth Inhibition
How it was run: as §1

[7] = test system: SK-MEL-5; conditions: Homo sapiens, single dose 10 µM, '-' = no inhibition, read-out: % Growth Inhibition
How it was run: as §1

[8] = test system: CCRF-CEM; conditions: Homo sapiens, single dose 10 µM, '-' = no inhibition, read-out: % Growth Inhibition
How it was run: as §1

[9] = test system: SK-MEL-28; conditions: Homo sapiens, single dose 10 µM, '-' = no inhibition, read-out: % Growth Inhibition
How it was run: as §1

[10] = test system: A498; conditions: Homo sapiens, single dose 10 µM, '-' = no inhibition, read-out: % Growth Inhibition
How it was run: as §1

[11] = test system: M14; conditions: Homo sapiens, single dose 10 µM, '-' = no inhibition, read-out: % Growth Inhibition
How it was run: as §1

[12] = test system: HS 578T; conditions: Homo sapiens, single dose 10 µM, '-' = no inhibition, read-out: % Growth Inhibition
How it was run: as §1

[13] = test system: MALME-3M; conditions: Homo sapiens, single dose 10 µM, '-' = no inhibition, read-out: % Growth Inhibition
How it was run: as §1

[14] = test system: KM12; conditions: Homo sapiens, single dose 10 µM, '-' = no inhibition, read-out: % Growth Inhibition
How it was run: as §1

[15] = test system: UACC-62; conditions: Homo sapiens, single dose 10 µM, '-' = no inhibition, read-out: % Growth Inhibition
How it was run: as §1

[16] = test system: NCI-H460; conditions: Homo sapiens, single dose 10 µM, '-' = no inhibition, read-out: % Growth Inhibition
How it was run: as §1

[17] = test system: A549/ATCC; conditions: Homo sapiens, single dose 10 µM, '-' = no inhibition, read-out: % Growth Inhibition
How it was run: as §1

[18] = test system: HOP-62; conditions: Homo sapiens, single dose 10 µM, '-' = no inhibition, read-out: % Growth Inhibition
How it was run: as §1

[19] = test system: HCT-15; conditions: Homo sapiens, single dose 10 µM, '-' = no inhibition, read-out: % Growth Inhibition
How it was run: as §1

[20] = test system: SF-539; conditions: Homo sapiens, single dose 10 µM, '-' = no inhibition, read-out: % Growth Inhibition
How it was run: as §1

[21] = test system: SW-620; conditions: Homo sapiens, single dose 10 µM, '-' = no inhibition, read-out: % Growth Inhibition
How it was run: as §1

[22] = test system: NCI-H522; conditions: Homo sapiens, single dose 10 µM, '-' = no inhibition, read-out: % Growth Inhibition
How it was run: as §1

[23] = test system: SK-OV-3; conditions: Homo sapiens, single dose 10 µM, '-' = no inhibition, read-out: % Growth Inhibition
How it was run: as §1

[24] = test system: 786-0; conditions: Homo sapiens, single dose 10 µM, '-' = no inhibition, read-out: % Growth Inhibition
How it was run: as §1

[25] = test system: T-47D; conditions: Homo sapiens, T47D, single dose 10 µM, '-' = no inhibition, read-out: % Growth Inhibition
How it was run: as §1

[26] = test system: MDA-MB-468; conditions: Homo sapiens, single dose 10 µM, '-' = no inhibition, read-out: % Growth Inhibition
How it was run: as §1

[27] = test system: SF-268; conditions: Homo sapiens, single dose 10 µM, '-' = no inhibition, read-out: % Growth Inhibition
How it was run: as §1

[28] = test system: IGROV1; conditions: Homo sapiens, IGROV-1, single dose 10 µM, '-' = no inhibition, read-out: % Growth Inhibition
How it was run: as §1

[29] = test system: HOP-92; conditions: Homo sapiens, single dose 10 µM, '-' = no inhibition, read-out: % Growth Inhibition
How it was run: as §1

[30] = test system: COLO 205; conditions: Homo sapiens, single dose 10 µM, '-' = no inhibition, read-out: % Growth Inhibition
How it was run: as §1

[31] = test system: CAKI-1; conditions: Homo sapiens, single dose 10 µM, '-' = no inhibition, read-out: % Growth Inhibition
How it was run: as §1

[32] = test system: NCI-H322M; conditions: Homo sapiens, single dose 10 µM, '-' = no inhibition, read-out: % Growth Inhibition
How it was run: as §1

[33] = test system: EKVX; conditions: Homo sapiens, single dose 10 µM, '-' = no inhibition, read-out: % Growth Inhibition
How it was run: as §1

[34] = test system: UO-31; conditions: Homo sapiens, single dose 10 µM, '-' = no inhibition, read-out: % Growth Inhibition
How it was run: as §1

[35] = test system: OVCAR-4; conditions: Homo sapiens, single dose 10 µM, '-' = no inhibition, read-out: % Growth Inhibition
How it was run: as §1

[36] = test system: RPMI-8226; conditions: Homo sapiens, single dose 10 µM, '-' = no inhibition, read-out: % Growth Inhibition
How it was run: as §1

[37] = test system: NCI-H23; conditions: Homo sapiens, single dose 10 µM, '-' = no inhibition, read-out: % Growth Inhibition
How it was run: as §1

[38] = test system: SNB-75; conditions: Homo sapiens, single dose 10 µM, '-' = no inhibition, read-out: % Growth Inhibition
How it was run: as §1

[39] = test system: RXF 393; conditions: Homo sapiens, single dose 10 µM, '-' = no inhibition, read-out: % Growth Inhibition
How it was run: as §1

[40] = test system: SNB-19; conditions: Homo sapiens, single dose 10 µM, '-' = no inhibition, read-out: % Growth Inhibition
How it was run: as §1

[41] = test system: HCT-116; conditions: Homo sapiens, single dose 10 µM, '-' = no inhibition, read-out: % Growth Inhibition
How it was run: as §1

[42] = test system: MCF7; conditions: Homo sapiens, single dose 10 µM, '-' = no inhibition, read-out: % Growth Inhibition
How it was run: as §1

[43] = test system: SK-MEL-2; conditions: Homo sapiens, single dose 10 µM, '-' = no inhibition, read-out: % Growth Inhibition
How it was run: as §1

[44] = test system: OVCAR-5; conditions: Homo sapiens, single dose 10 µM, '-' = no inhibition, read-out: % Growth Inhibition
How it was run: as §1

[45] = test system: OVCAR-3; conditions: Homo sapiens, single dose 10 µM, '-' = no inhibition, read-out: % Growth Inhibition
How it was run: as §1

[46] = test system: SF-295; conditions: Homo sapiens, single dose 10 µM, '-' = no inhibition, read-out: % Growth Inhibition
How it was run: as §1

[47] = test system: DU-145; conditions: Homo sapiens, single dose 10 µM, '-' = no inhibition, read-out: % Growth Inhibition
How it was run: as §1

[48] = test system: ACHN 1; conditions: Homo sapiens, single dose 10 µM, '-' = no inhibition, read-out: % Growth Inhibition
How it was run: as §1

Work on `COc1ccc(-c2cc(-c3ccc(Cl)cc3)nc(SCc3ccccc3)n2)cc1OC` [Compound 28, 2-(Benzylthio)-4-(4-chlorophenyl)-6-(3,4-dimethoxyphenyl)pyrimidine] yielded an inhibition at 10 µM [1] of under 0%, an inhibition at 10 µM [2] of 39.4% and an inhibition at 10 µM [3] of 14.3%. It also gave an inhibition at 10 µM [4] of 8.32%, an inhibition at 10 µM [5] of 13.1% and an inhibition at 10 µM [6] of 19%. The inhibition at 10 µM [7] was 30.1%, the inhibition at 10 µM [8] was 17.4% and the inhibition at 10 µM [9] was 4.01%. The inhibition at 10 µM [10] was 0.85%, the inhibition at 10 µM [11] was 0.81% and the inhibition at 10 µM [12] was 18.2%. For the same compound, the inhibition at 10 µM [13] was under 0%, the inhibition at 10 µM [14] was 23.2% and the inhibition at 10 µM [15] was under 0%. For the same compound, the inhibition at 10 µM [16] was 14.8%, the inhibition at 10 µM [17] was 18.9% and the inhibition at 10 µM [18] was under 0%. It also gave an inhibition at 10 µM [19] of 27.6%, an inhibition at 10 µM [20] of 17.8% and an inhibition at 10 µM [21] of 2.79%. The inhibition at 10 µM [22] was 31.8%, the inhibition at 10 µM [23] was 2.92% and the inhibition at 10 µM [24] was 7.96%. The inhibition at 10 µM [25] was 33%, the inhibition at 10 µM [26] was 6.53% and the inhibition at 10 µM [27] was 10.8%. For the same compound, the inhibition at 10 µM [28] was under 0%, the inhibition at 10 µM [29] was 0.63% and the inhibition at 10 µM [30] was 3.49%. It also gave an inhibition at 10 µM [31] of 25.7%, an inhibition at 10 µM [32] of under 0% and an inhibition at 10 µM [33] of 22.2%. It also gave an inhibition at 10 µM [34] of 24.8%, an inhibition at 10 µM [35] of 21.5% and an inhibition at 10 µM [36] of 24.3%. It also gave an inhibition at 10 µM [37] of 2.2%, an inhibition at 10 µM [38] of under 0% and an inhibition at 10 µM [39] of under 0%. The inhibition at 10 µM [40] was 4.06%, the inhibition at 10 µM [41] was 25.9% and the inhibition at 10 µM [42] was 12.9%. For the same compound, the inhibition at 10 µM [43] was 12%, the inhibition at 10 µM [44] was 6.33% and the inhibition at 10 µM [45] was under 0%. It also gave an inhibition at 10 µM [46] of 7.84%, an inhibition at 10 µM [47] of 8.2% and an inhibition at 10 µM [48] of 13.1%.

`COc1ccc(CSc2nc(-c3ccc(Cl)cc3)cc(-c3ccc(OC)c(OC)c3)n2)cc1` [Compound 29, 2-(4-Methoxybenzylthio)-4-(4-chlorophenyl)-6-(3,4-dimethoxyphenyl)pyrimidine] gave an inhibition at 10 µM [1] of under 0%, an inhibition at 10 µM [2] of 45.8% and an inhibition at 10 µM [3] of 32.1%. For the same compound, the inhibition at 10 µM [4] was 20.9%, the inhibition at 10 µM [5] was 23.3% and the inhibition at 10 µM [6] was 36.4%. It also gave an inhibition at 10 µM [7] of 22.6%, an inhibition at 10 µM [8] of 14.2% and an inhibition at 10 µM [9] of 11.3%. The inhibition at 10 µM [10] was under 0%, the inhibition at 10 µM [11] was 19.3% and the inhibition at 10 µM [12] was 37.5%. It also gave an inhibition at 10 µM [13] of 4.95%, an inhibition at 10 µM [14] of 24.8% and an inhibition at 10 µM [15] of 38.7%. The inhibition at 10 µM [16] was 21.2%, the inhibition at 10 µM [17] was 30.1% and the inhibition at 10 µM [18] was 16.4%. It also gave an inhibition at 10 µM [19] of 42.1%, an inhibition at 10 µM [20] of 14.7% and an inhibition at 10 µM [21] of 12.7%. For the same compound, the inhibition at 10 µM [22] was 23.1%, the inhibition at 10 µM [23] was 13.9% and the inhibition at 10 µM [24] was 11.6%. The inhibition at 10 µM [25] was 34.6%, the inhibition at 10 µM [26] was 40.2% and the inhibition at 10 µM [27] was 33%. It also gave an inhibition at 10 µM [28] of 6.14%, an inhibition at 10 µM [29] of 20.6% and an inhibition at 10 µM [30] of 11.3%. For the same compound, the inhibition at 10 µM [31] was 23.1%, the inhibition at 10 µM [32] was 17.4% and the inhibition at 10 µM [33] was 29.7%. The inhibition at 10 µM [34] was 33.1%, the inhibition at 10 µM [35] was 21.9% and the inhibition at 10 µM [36] was 36.9%. It also gave an inhibition at 10 µM [37] of 14.6%, an inhibition at 10 µM [38] of 1.93% and an inhibition at 10 µM [39] of 24.2%. For the same compound, the inhibition at 10 µM [40] was 14.2%, the inhibition at 10 µM [41] was 30.2% and the inhibition at 10 µM [42] was 27.4%. For the same compound, the inhibition at 10 µM [43] was 13.7%, the inhibition at 10 µM [44] was 7.38% and the inhibition at 10 µM [45] was under 0%. For the same compound, the inhibition at 10 µM [46] was 16.7%, the inhibition at 10 µM [47] was 28.6% and the inhibition at 10 µM [48] was 13.2%.

Reference: publication PMC11576293, “New series of 4,6-diaryl pyrimidines: facile synthesis and antiproliferative activity as dual EGFR/VEGFR-2 inhibitors” (Frontiers in Chemistry, 2024)
